These results are taken from patent publication US20090170812A1, “Transcription factor modulating compounds and methods of use thereof” (priority 2006, published 2009).

For one data set, the target named is LcrF (VirF) (Yersinia pestis, UniProt P28808). In words: biochemical. It is filed as binding, Y. pseudotuberculosis.
The next data set deals with T1, ExsA (Pseudomonas aeruginosa, UniProt P26993).
T1 construct: made in house
T1 sequence (P26993 1-278): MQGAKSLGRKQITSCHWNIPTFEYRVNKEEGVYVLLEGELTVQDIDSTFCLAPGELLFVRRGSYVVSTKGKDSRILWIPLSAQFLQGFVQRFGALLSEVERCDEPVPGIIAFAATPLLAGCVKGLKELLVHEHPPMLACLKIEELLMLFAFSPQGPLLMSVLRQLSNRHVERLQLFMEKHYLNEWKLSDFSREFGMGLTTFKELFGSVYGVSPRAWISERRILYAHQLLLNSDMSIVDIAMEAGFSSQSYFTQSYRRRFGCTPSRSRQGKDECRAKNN
In words: In vitro activity of Mar inhibitors against ExsA: cell-free DNA binding assay. The conditions noted are these: purified ExsA from P. aeruginosa, inhibition of DNA binding in vitro.

The test system of data set [1] is Yersinia pseudotuberculosis.
For the next data set, the system named is P. aeruginosa. Description: Whole cell assay: cytotoxicity of P. aeruginosa toward J774 cells (CytoTox 96, LDH release). The following applies: percent cytotoxicity of treated P. aeruginosa toward J774 cells. (Release of lactate dehydrogenase indicates damage to the cell membrane.)

A value given as a limit tells only on which side of the number the result lay.

Sequence of LcrF (VirF) (P28808 whole entry, looked up): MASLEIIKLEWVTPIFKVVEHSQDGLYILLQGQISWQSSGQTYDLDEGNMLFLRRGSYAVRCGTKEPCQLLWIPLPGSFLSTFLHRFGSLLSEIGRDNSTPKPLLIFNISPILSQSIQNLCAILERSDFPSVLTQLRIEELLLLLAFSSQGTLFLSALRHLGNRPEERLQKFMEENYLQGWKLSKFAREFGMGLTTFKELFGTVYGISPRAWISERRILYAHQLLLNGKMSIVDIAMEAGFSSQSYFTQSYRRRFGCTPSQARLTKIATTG

As a reminder, the EC50 is the midpoint of the concentration-response curve. A high value points to a need for much substance. With `CC(=O)c1ccc(C(=O)Nc2ccc(-c3nc4ncc([N+](=O)[O-])cc4n3O)cc2)cc1` [Y], the 50% effective concentration (EC50) on LcrF (VirF) is 10.1 to 25 µM; on ExsA, < 10 µM. The “Cytotoxicity at 50 μg/mL Yersinia” value in data set [1] was “* (key: *: percent cytotoxicity above 75% at 50 μg/mL; **: cytotoxicities below 75% at 50 μg/mL)”. Moreover, the “Cytotoxicity at 50 μg/mL Pseudomonas” value in the data set with P. aeruginosa is reported as “* (percent cytotoxicities above 75% at 50 mg/mL)”.
As for `O=C(/C=C/c1ccc(F)cc1)Nc1ccc(-c2nc3ncc([N+](=O)[O-])cc3n2O)c(F)c1` [AV], the EC50 on LcrF (VirF) and at ExsA was < 10 µM throughout. In data set [1], the “Cytotoxicity at 50 μg/mL Yersinia” value was “* (key: *: percent cytotoxicity above 75% at 50 μg/mL; **: cytotoxicities below 75% at 50 μg/mL)”. Further, the “Cytotoxicity at 50 μg/mL Pseudomonas” value in the data set on P. aeruginosa is on record as “* (percent cytotoxicities above 75% at 50 mg/mL)”.
As to `COc1cc(C(=O)Nc2ccc(-c3nc4ccc([N+](=O)[O-])cc4n3O)cc2)ccc1F` [AB], the concentration giving a half-maximal response (EC50) on LcrF (VirF) and on ExsA was 10.1 to 25 µM each time. In addition, the “Cytotoxicity at 50 μg/mL Yersinia” value in data set [1] is “* (key: *: percent cytotoxicity above 75% at 50 μg/mL; **: cytotoxicities below 75% at 50 μg/mL)”. In the data set with P. aeruginosa, the “Cytotoxicity at 50 μg/mL Pseudomonas” value was “* (percent cytotoxicities above 75% at 50 mg/mL)”.
Regarding `CCOP(=O)(COn1c(-c2ccc(NC(=O)/C=C/c3ccc(F)cc3)cc2)nc2ccc([N+](=O)[O-])cc21)OCC` [Compound AS, (2-{4-[(E)-3-(4-Fluoro-phenyl)-acryloylamino]-phenyl}-6-nitro-benzoimidazol-1-yloxymethyl)-phosphonic Acid Diethyl Ester], the EC50 is > 25.1 µM on LcrF (VirF) and 10.1 to 25 µM at ExsA. The “Cytotoxicity at 50 μg/mL Yersinia” value in data set [1] was “* (key: *: percent cytotoxicity above 75% at 50 μg/mL; **: cytotoxicities below 75% at 50 μg/mL)”. Moreover, in the data set on P. aeruginosa, the “Cytotoxicity at 50 μg/mL Pseudomonas” value is recorded as “* (percent cytotoxicities above 75% at 50 mg/mL)”.
For `O=C(/C=C/c1ccc(-n2cncn2)cc1)Nc1ccc(-c2nc3ccc([N+](=O)[O-])cc3n2O)cc1` [Compound BI, (E)-N-[4-(1-Hydroxy-6-nitro-1H-benzoimidazol-2-yl)-phenyl]-3-(4-[1,2,4]triazol-1-yl-phenyl)-acrylamide] the same measures were > 25.1 µM, < 10 µM, “** (key: *: percent cytotoxicity above 75% at 50 μg/mL; **: cytotoxicities below 75% at 50 μg/mL)” and “** (cytotoxicities below 75% at 50 mg/mL)”.
For `O=C(Nc1ccc(-c2nc3ncc([N+](=O)[O-])cc3n2O)cc1)c1ccc(F)cc1` [X] the same measures were 10.1 to 25 µM, 10.1 to 25 µM, “* (key: *: percent cytotoxicity above 75% at 50 μg/mL; **: cytotoxicities below 75% at 50 μg/mL)” and “* (percent cytotoxicities above 75% at 50 mg/mL)”.
For `CCOP(=O)(Cc1cc(/C=C/C(=O)Nc2ccc(-c3nc4ccc([N+](=O)[O-])cc4n3O)cc2)ccc1F)OCC` [AT], the EC50 at LcrF (VirF) and on ExsA was < 10 µM throughout. Also, the “Cytotoxicity at 50 μg/mL Yersinia” value in data set [1] is “* (key: *: percent cytotoxicity above 75% at 50 μg/mL; **: cytotoxicities below 75% at 50 μg/mL)”. Besides, the “Cytotoxicity at 50 μg/mL Pseudomonas” value in the data set with P. aeruginosa is listed as “* (percent cytotoxicities above 75% at 50 mg/mL)”.
On to `O=C(/C=C/c1ccc(F)cc1)Nc1ccc(-c2nc3ccc([N+](=O)[O-])cc3n2OCP(=O)(O)O)cc1` [Compound AL, (2-{4-[(E)-3-(4-Fluoro-phenyl)-acryloylamino]-phenyl}-6-nitro-benzoimidazol-1-yloxymethyl)-phosphonic Acid], for which the 50% effective concentration (EC50) on LcrF (VirF) and on ExsA was < 10 µM throughout. The “Cytotoxicity at 50 μg/mL Yersinia” value in data set [1] was “** (key: *: percent cytotoxicity above 75% at 50 μg/mL; **: cytotoxicities below 75% at 50 μg/mL)”. In addition, in the data set on P. aeruginosa, the “Cytotoxicity at 50 μg/mL Pseudomonas” value was “* (percent cytotoxicities above 75% at 50 mg/mL)”.
On to `O=C(Nc1ccc(-c2nc3ccc([N+](=O)[O-])cc3n2O)cc1)c1ccccc1O` [AC], for which the concentration giving a half-maximal response (EC50) on LcrF (VirF) and at ExsA was 10.1 to 25 µM in each case. Further, the “Cytotoxicity at 50 μg/mL Yersinia” value in data set [1] was “* (key: *: percent cytotoxicity above 75% at 50 μg/mL; **: cytotoxicities below 75% at 50 μg/mL)”. In the data set on P. aeruginosa, the “Cytotoxicity at 50 μg/mL Pseudomonas” value is on record as “* (percent cytotoxicities above 75% at 50 mg/mL)”.
As for `CCc1cc(-c2nc3ccc([N+](=O)[O-])cc3n2O)ccc1NC(=O)c1ccc(C(C)=O)cc1` [AA], the EC50 on LcrF (VirF) and on ExsA was 10.1 to 25 µM each time. Moreover, the “Cytotoxicity at 50 μg/mL Yersinia” value in data set [1] is “* (key: *: percent cytotoxicity above 75% at 50 μg/mL; **: cytotoxicities below 75% at 50 μg/mL)”. The “Cytotoxicity at 50 μg/mL Pseudomonas” value with P. aeruginosa is on record as “* (percent cytotoxicities above 75% at 50 mg/mL)”.
As for `O=C(Nc1ccc(-c2nc3ccc([N+](=O)[O-])cc3n2O)cc1)c1ccc(-c2cncnc2)cc1` [R], the concentration for a half-maximal effect (EC50) on LcrF (VirF) is > 25.1 µM; on ExsA it was 10.1 to 25 µM. Besides, the “Cytotoxicity at 50 μg/mL Yersinia” value in data set [1] is “** (key: *: percent cytotoxicity above 75% at 50 μg/mL; **: cytotoxicities below 75% at 50 μg/mL)”. In the data set on P. aeruginosa, the “Cytotoxicity at 50 μg/mL Pseudomonas” value was “* (percent cytotoxicities above 75% at 50 mg/mL)”.
As for `COc1cc(NC(=O)c2ccc(F)cc2)ccc1-c1nc2ccc([N+](=O)[O-])cc2n1O` [AI], the EC50 is > 25.1 µM at LcrF (VirF) and 10.1 to 25 µM on ExsA. Also, the “Cytotoxicity at 50 μg/mL Yersinia” value in data set [1] is reported as “* (key: *: percent cytotoxicity above 75% at 50 μg/mL; **: cytotoxicities below 75% at 50 μg/mL)”. Further, the “Cytotoxicity at 50 μg/mL Pseudomonas” value in the data set with P. aeruginosa is “* (percent cytotoxicities above 75% at 50 mg/mL)”.
On to `CC(=O)c1ccc(C(=O)Nc2ccc(-c3nc4cc(C)c([N+](=O)[O-])cc4n3O)cc2)cc1` [BE], for which the half-maximal effective concentration (EC50) at LcrF (VirF) and on ExsA was < 10 µM throughout. The “Cytotoxicity at 50 μg/mL Yersinia” value in data set [1] was “* (key: *: percent cytotoxicity above 75% at 50 μg/mL; **: cytotoxicities below 75% at 50 μg/mL)”. For the same compound, the “Cytotoxicity at 50 μg/mL Pseudomonas” value in the data set on P. aeruginosa was “* (percent cytotoxicities above 75% at 50 mg/mL)”.
On to `O=C(/C=C/c1ccc(F)cc1)Nc1ccc(-c2nc3ccc([N+](=O)[O-])cc3n2O)cc1F` [Compound AZ, (E)-N-[2-Fluoro-4-(1-hydroxy-6-nitro-1H-benzoimidazol-2-yl)-phenyl]-3-(4-fluoro-phenyl)-acrylamide], for which the 50% effective concentration (EC50) at LcrF (VirF) and at ExsA was 10.1 to 25 µM throughout. Moreover, the “Cytotoxicity at 50 μg/mL Yersinia” value in data set [1] is recorded as “* (key: *: percent cytotoxicity above 75% at 50 μg/mL; **: cytotoxicities below 75% at 50 μg/mL)”. In addition, the “Cytotoxicity at 50 μg/mL Pseudomonas” value in the data set with P. aeruginosa is “* (percent cytotoxicities above 75% at 50 mg/mL)”.
As for `O=C(Nc1ccc(-c2nc3ccc([N+](=O)[O-])cc3n2O)cc1)C1=Cc2ccccc2OC1` [BM], the EC50 on LcrF (VirF) and at ExsA was 10.1 to 25 µM each time. Further, in data set [1], the “Cytotoxicity at 50 μg/mL Yersinia” value was “* (key: *: percent cytotoxicity above 75% at 50 μg/mL; **: cytotoxicities below 75% at 50 μg/mL)”. The “Cytotoxicity at 50 μg/mL Pseudomonas” value in the data set with P. aeruginosa is on record as “* (percent cytotoxicities above 75% at 50 mg/mL)”.
